Experimental data from BindingDB's records for patent US9040727 (Shanghai Institute of Pharmaceutical Industry, 2015).

The molecules below were run against Histone deacetylase 1 (Homo sapiens, UniProt Q13547) (assay: Inhibition Assay).
Histone deacetylase 1, sequence (Q13547 whole entry): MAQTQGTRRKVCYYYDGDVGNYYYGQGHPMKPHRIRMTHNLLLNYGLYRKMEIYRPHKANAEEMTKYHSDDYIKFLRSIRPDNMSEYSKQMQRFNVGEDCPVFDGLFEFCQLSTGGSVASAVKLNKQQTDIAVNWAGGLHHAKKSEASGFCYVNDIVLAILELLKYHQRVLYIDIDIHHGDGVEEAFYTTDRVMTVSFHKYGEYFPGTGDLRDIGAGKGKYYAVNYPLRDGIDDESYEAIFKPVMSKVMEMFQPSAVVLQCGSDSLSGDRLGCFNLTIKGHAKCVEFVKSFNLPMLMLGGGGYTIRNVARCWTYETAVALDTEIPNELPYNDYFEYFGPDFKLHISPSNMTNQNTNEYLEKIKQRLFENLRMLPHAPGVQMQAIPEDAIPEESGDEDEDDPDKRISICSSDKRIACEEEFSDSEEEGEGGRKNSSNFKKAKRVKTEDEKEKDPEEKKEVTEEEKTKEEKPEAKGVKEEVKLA

**Q.** For `Nc1ccccc1NC(=O)c1ccc(CNC(=O)c2cc3ccccc3[nH]2)cc1` [US9040727, V-5], which IC50 is on record?
**A.** 212 nM

**Q.** `Nc1ccccc1NC(=O)c1ccc(CNC(=O)c2cc3ccccc3o2)cc1` [US9040727, V-8] was tested. Which IC50 did it give?
**A.** 732 nM

**Q.** How did the IC50 turn out when `Nc1ccc(F)cc1NC(=O)c1ccc(CNC(=O)c2cc3ccccc3o2)cc1` [US9040727, V-9] was run?
**A.** 178 nM

**Q.** For `Nc1ccc(-c2cccs2)cc1NC(=O)c1ccc(CNC(=O)c2cc3ccccc3o2)cc1` [US9040727, V-10], which IC50 is on record?
**A.** 1610 nM

**Q.** How did the IC50 turn out when `Nc1ccc(-c2ccco2)cc1NC(=O)c1ccc(CNC(=O)c2nc3ccccc3[nH]2)cc1` [US9040727, V-14] was run?
**A.** 330 nM

**Q.** Which IC50 does the source give for `Nc1ccccc1NC(=O)c1ccc(CNC(=O)c2cc3cc(C(F)(F)F)ccc3[nH]2)cc1` [US9040727, V-20] here?
**A.** 1010 nM
